Results from patent US9486435B2, “(Het)aryl-p-quinone derivatives for treatment of mitochondrial diseases” (Edison Pharmaceuticals, Inc., priority 2008, dated 2016).

Columns and labels:
Type in all cases: cell-based
[1] = test system: human dermal fibroblasts from Huntington's patients; assay: Rescue of BSO-stressed fibroblasts from Huntington's patients; conditions: Fibroblast, Huntington's fibroblasts GM 04281, BSO stress, read-out: protection against Huntington's, EC50
Method: (§1) An initial screen was performed to identify compounds effective for the amelioration of redox disorders. Test samples, 4 reference compounds (Idebenone, decylubiquinone, Trolox and α-tocopherol acetate), and solvent controls were tested for their ability to rescue FRDA fibroblasts stressed by addition of L-buthionine-(S,R)-sulfoximine (BSO), as described in Jauslin et al., Hum. Mol. Genet. 11(24):3055 (2002), Jauslin et al., FASEB J. 17:1972-4 (2003), and International Patent Application WO 2004/003565. […] This specific BSO-mediated cell death can be prevented by administration of antioxidants or molecules involved in the antioxidant pathway, such as α-tocopherol, selenium, or small molecule glutathione peroxidase mimetics. However, antioxidants differ in their potency, i.e. the concentration at which they are able to rescue BSO-stressed FRDA fibroblasts.
(§2) Test samples were screened according to the following protocol: A culture with FRDA fibroblasts was started from a 1 ml vial with approximately 500,000 cells stored in liquid nitrogen. Cells were propagated in 10 cm cell culture dishes by splitting every third day in a ratio of 1:3 until nine plates were available. Once confluent, fibroblasts were harvested. For 54 micro titer plates (96 well-MTP) a total of 14.3 million cells (passage eight) were re-suspended in 480 ml medium, corresponding to 100 μl medium with 3,000 cells/well. The remaining cells were distributed in 10 cm cell culture plates (500,000 cells/plate) for propagation. The plates were incubated overnight at 37° C. in a atmosphere with 95% humidity and 5% CO2 to allow attachment of the cells to the culture plate.
(§3) MTP medium (243 μl) was added to a well of the microtiter plate. The test compounds were unfrozen, and 7.5 μl of a 5 mM stock solution was dissolved in the well containing 243 μl medium, resulting in a 150 μM master solution. Serial dilutions from the master solution were made. The period between the single dilution steps was kept as short as possible (generally less than 1 second).
(§4) Plates were kept overnight in the cell culture incubator. The next day, 10 μl of a 10 mM BSO solution were added to the wells, resulting in a 1 mM final BSO concentration. Forty-eight hours later, three plates were examined under a phase-contrast microscope to verify that the cells in the 0% control (wells E1-H1) were clearly dead. The medium from all plates was discarded, and the remaining liquid was removed by gently tapping the plate inversed onto a paper towel.
(§5) 100 μl of PBS containing 1.2 μM Calcein AM were then added to each well. The plates were incubated for 50-70 minutes at room temperature. After that time the PBS was discarded, the plate gently tapped on a paper towel and fluorescence (excitation/emission wavelengths of 485 nm and 525 nm, respectively) was read on a Gemini fluorescence reader. Data was imported into Microsoft Excel (EXCEL is a registered trademark of Microsoft Corporation for a spreadsheet program) and used to calculate the EC50 concentration for each compound.
Compounds of the invention were tested using the screen as described in Example A, but substituting FRDA cells with Huntington's cells obtained from the Coriell Cell Repositories (Camden, N.J.; repository number GM 04281). The compounds were tested for their ability to rescue human dermal fibroblasts from Huntington's patients from oxidative stress.

[2] = test system: Human dermal fibroblasts from Friedreich's Ataxia patients; assay: Rescue of BSO-stressed FRDA fibroblasts (Calcein AM viability); conditions: FRDA fibroblasts GM04078, BSO stress, read-out: protection against FRDA, EC50
Method: as §1
MEM (a medium enriched in amino acids and vitamins, catalog no. 1-31F24-I) and Medium 199 (M199, catalog no. 1-21F22-I) with Earle's Balanced Salts, without phenol red, were purchased from Bioconcept. Fetal Calf Serum was obtained from PAA Laboratories. Basic fibroblast growth factor and epidermal growth factor were purchased from PeproTech. Penicillin-streptomycin-glutamine mix, L-buthionine (S,R)-sulfoximine, (+)-α-tocopherol acetate, decylubiquinone, and insulin from bovine pancreas were purchased from Sigma. Trolox (6-hydroxy-2,5,7,8-tetramethylchromane-2-carboxylic acid) was obtained from Fluka. Idebenone was obtained from Chemo Iberica. Calcein AM was purchased from Molecular Probes. Cell culture medium was made by combining 125 ml M 199 EBS, 50 ml Fetal Calf Serum, 100 U/ml penicillin, 100 μg/ml streptomycin, 2 mM glutamine, 10 μg/ml insulin, 10 ng/ml EGF, and 10 ng/ml bFGF; MEM EBS was added to make the volume up to 500 ml. A 10 mM BSO solution was prepared by dissolving 444 mg BSO in 200 ml of medium with subsequent filter-sterilization. During the course of the experiments, this solution was stored at +4° C. The cells were obtained from the Coriell Cell Repositories (Camden, N.J.; repository number GM04078) and grown in 10 cm tissue culture plates. Every third day, they were split at a 1:3 ratio.
The test samples were supplied in 1.5 ml glass vials. The compounds were diluted with DMSO, ethanol or PBS to result in a 5 mM stock solution. Once dissolved, they were stored at −20° C. Reference antioxidants (Idebenone, decylubiquinone, α-tocopherol acetate and trolox) were dissolved in DMSO.
as §2, §3
Plates were kept overnight in the cell culture incubator. The next day, 10 μl of a 10 mM BSO solution were added to the wells, resulting in a 1 mM final BSO concentration. Forty-eight hours later, three plates were examined under a phase-contrast microscope to verify that the cells in the 0% control (wells E1-H1) were clearly dead. […]

[3] = test system: human dermal fibroblasts from Parkinson's disease patients; assay: Rescue of BSO-stressed fibroblasts from Parkinson's disease patients; conditions: Fibroblast, PD fibroblasts AG20439, BSO stress, read-out: protection against PD, EC50
Method: as §1, §2, §3, §4, §5
Compounds of the invention were screened as described in Example A, but substituting FRDA cells with Parkinson's Disease (PD) cells obtained from the Coriell Cell Repositories (Camden, N.J.; repository number AG20439). The compounds were tested for their ability to rescue human dermal fibroblasts from Parkinson's disease patients from oxidative stress.

[4] = test system: human dermal fibroblasts from LHON patients; assay: Rescue of BSO-stressed fibroblasts from LHON patients; conditions: Fibroblast, LHON fibroblasts GM03858, BSO stress, read-out: protection against LHON, EC50
Method: as §1, §2, §3, §4, §5
Compounds of the invention were screened as described in Example A, but substituting FRDA cells with Leber's Hereditary Optic Neuropathy (LHON) cells obtained from the Coriell Cell Repositories (Camden, N.J.; repository number GM03858). The compounds were tested for their ability to rescue human dermal fibroblasts from LHON patients from oxidative stress.

Measured: EC50

CC1=C(CCC(C)(C)O)C(=O)C(c2ccc(C(F)(F)F)cc2)=C(C)C1=O [Example 1, 2-(3-Hydroxy-3-methylbutyl)-3,5-dimethyl-6-(4-(trifluoromethyl)phenyl)cyclohexa-2,5-diene-1,4-dione]
< 200 nM: all assays above

CC1=C(C)C(=O)C(c2ccc(C(F)(F)F)cc2)=C(CCC(C)(C)O)C1=O [Example 11, 2-(3-Hydroxy-3-methylbutyl)-5,6-dimethyl-3-(4-(trifluoromethyl)phenyl)cyclohexa-2,5-diene-1,4-dione]
< 200 nM: all assays above

CC1=C(CCC(C)(C)O)C(=O)C(c2ccc(F)cc2)=C(C)C1=O [Example 6, 2-(4Fluorophenyl)-6-(3-hydroxy-3-methylbutyl)-3,5-dimethylcyclohexa-2,5-diene-1,4-dione]
< 200 nM: all assays above

CC1=C(C)C(=O)C(c2ccc3ccccc3c2)=C(CCC(C)(C)O)C1=O [Example 13, 2-(3-Hydroxy-3-methylbutyl)-5,6-dimethyl-3-(naphthalen-2-yl)cyclohexa-2,5-diene-1,4-dione]
< 200 nM: all assays above

COc1ccc(C2=C(C)C(=O)C(C)=C(CCC(C)(C)O)C2=O)cc1 [Example 2, 2-(3-Hydroxy-3-methylbutyl)-6-(4-methoxyphenyl)-3,5-dimethylcyclohexa-2,5-diene-1,4-dione]
< 200 nM: all assays above

CC1=C(C)C(=O)C(c2ccc(Cl)cc2)=C(CCC(C)(C)O)C1=O [Example 15, 2-(4-Chlorophenyl)-3-(3-hydroxy-3-methylbutyl)-5,6-dimethylcyclohexa-2,5-diene-1,4-dione]
< 200 nM: all assays above

CC1=C(CCC(C)(C)O)C(=O)C(c2ccc(F)c(F)c2)=C(C)C1=O [Example 5, 2-(3,4-Difluorophenyl)-6-(3-hydroxy-3-methylbutyl)-3,5-dimethylcyclohexa-2,5-diene-1,4-dione]
< 200 nM: all assays above

CC1=C(CCC(C)(C)O)C(=O)C(c2ccc3ccccc3c2)=C(C)C1=O [Example 4, 2-(3-Hydroxy-3-methylbutyl)-3,5-dimethyl-6-(naphthalen-2-yl)cyclohexa-2,5-diene-1,4-dione]
< 200 nM: all assays above

CC1=C(C)C(=O)C(c2ccc(C(C)(C)C)cc2)=C(CCC(C)(C)O)C1=O [Example 18, 2-(4-tert-Butylphenyl)-3-(3-hydroxy-3-methylbutyl)-5,6-dimethylcyclohexa-2,5-diene-1,4-dione]
< 200 nM: all assays above
